For one compound, IC50 results are on record in article PMC4819196, “A novel fibroblast growth factor receptor 1 inhibitor protects against cartilage degradation in a murine model of osteoarthritis” (Scientific Reports, 2016).

Each structure is given as a SMILES string.

In this assay the target is fibroblast growth factor receptor 1 (FGFR1) (Homo sapiens, UniProt P11362). The assay can be described thus: cell-free kinase inhibition, caliper mobility shift assay, ATP at Km ([…]). Format: biochemical.
fibroblast growth factor receptor 1 (FGFR1), sequence (P11362 22-822): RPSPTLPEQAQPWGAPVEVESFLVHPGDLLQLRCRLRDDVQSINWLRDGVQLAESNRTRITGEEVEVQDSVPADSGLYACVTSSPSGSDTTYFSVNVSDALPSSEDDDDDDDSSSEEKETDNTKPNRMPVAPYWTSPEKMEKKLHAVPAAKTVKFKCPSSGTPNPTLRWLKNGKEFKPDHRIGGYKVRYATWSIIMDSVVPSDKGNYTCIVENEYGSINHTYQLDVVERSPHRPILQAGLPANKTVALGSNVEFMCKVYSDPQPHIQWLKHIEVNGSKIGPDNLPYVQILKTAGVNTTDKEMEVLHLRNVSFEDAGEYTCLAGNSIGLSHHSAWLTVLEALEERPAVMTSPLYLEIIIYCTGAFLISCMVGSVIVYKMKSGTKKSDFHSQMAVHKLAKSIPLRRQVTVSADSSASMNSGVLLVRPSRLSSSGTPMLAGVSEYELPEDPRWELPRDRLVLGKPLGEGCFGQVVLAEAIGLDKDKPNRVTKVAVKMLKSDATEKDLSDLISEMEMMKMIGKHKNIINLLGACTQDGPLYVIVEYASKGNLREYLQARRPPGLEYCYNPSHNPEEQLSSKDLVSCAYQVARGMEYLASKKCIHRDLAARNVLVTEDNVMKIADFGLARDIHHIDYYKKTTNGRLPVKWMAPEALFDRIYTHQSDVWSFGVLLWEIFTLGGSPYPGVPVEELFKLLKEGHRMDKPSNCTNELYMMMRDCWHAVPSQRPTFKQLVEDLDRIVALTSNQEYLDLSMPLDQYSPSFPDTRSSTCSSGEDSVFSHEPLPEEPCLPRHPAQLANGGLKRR

As a reminder, the IC50 is the midpoint of a concentration-inhibition curve. For the compound `CCOc1ccc(/C=C2\CC[C@@]3(C2=O)[C@@H](c2ccc(OCC)cc2)CN(C)[C@]32C(=O)c3cccc4cccc2c34)cc1` [G141], the IC50 amounted to 2.7 ± 0.54 µM.
